The text below walks through data of ChEMBL document CHEMBL1201862, “PubChem BioAssay data set” (2004).

Molecules are shown by their SMILES.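 48-hour exposure; five concentrations; linearly interpolated endpoints. GI50 is the concentration that inhibits growth by half.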 Activity calls are given as the source filed them. No stated cut-off is given here; in the data, active = GI50 up to about 1.1 µM and inactive = higher.

What all share (assay): NCI tumour cell line growth inhibition, 48 h
For assay [1], the system named is SK-MEL-2.
For assay [2], the system named is RXF 393.
The subject of assay [3] is HCC 2998.
For assay [4], the system named is SN12C.
For assay [5], the system named is SW-620.
Assay [6] has as its system MDA-N.
Assay [7] deals with SK-MEL-28.
In assay [8] the test system is OVCAR-8.
The subject of assay [9] is BT-549.
In assay [10] the test system is NCI-H226.
The subject of assay [11] is ACHN.
The subject of assay [12] is OVCAR-4.
Assay [13] relates to T47D.
Assay [14] concerns IGROV-1.
In assay [15] the test system is M14.
Assay [16] deals with MOLT-4.
The test system of assay [17] is UACC-62.
Assay [18] concerns U-251.
Assay [19] concerns HOP-92.

In the case of `O=C1c2scc(-c3ccccc3)c2-n2cccc21`, the GI50 in assay [1] was 12.2 µM (inactive); in [2], 14 µM (inactive); in [3], 20.4 µM (inactive); in assay [4] it was 29.8 µM (inactive); in assay [5], 16.3 µM (inactive); in assay [6], 16.1 µM (inactive). For the same compound, the GI50 in assay [7] is 15.2 µM (inactive); in assay [8], 13.5 µM (inactive); in [9] it was 25.9 µM (inactive); in assay [10], 10.2 µM (inactive); in assay [11], > 100 µM (inactive); in [12], 75.9 µM (inactive). Moreover, the GI50 in [13] is 17.7 µM (inactive); in assay [14], 2.59 µM (inactive); in assay [15], 18 µM (inactive); in assay [16], 13.4 µM (inactive); in assay [17], 17.9 µM (inactive); in assay [18], 14.1 µM (inactive).
Regarding `N=C(N)N/N=C/c1c(-c2ccc(Cl)cc2)nc2sc(Cl)cn12`, the GI50 is 1.71 µM (inactive) in assay [1]; 1.77 µM (inactive) in assay [4]; 1.09 µM (active) in assay [5]; 1.69 µM (inactive) in [19]; 1.72 µM (inactive) in assay [6]; 1.81 µM (inactive) in assay [7]. The GI50 in assay [8] was 1.27 µM (inactive); in assay [9] it was 1.27 µM (inactive); in assay [10], 1.94 µM (inactive); in [11], 3.85 µM (inactive); in [12], 1.02 µM (active); in assay [13], 1.12 µM (inactive). Further, the GI50 is 0.755 µM (active) in [14]; 1.9 µM (inactive) in assay [15]; 0.504 µM (active) in assay [16]; 1.78 µM (inactive) in assay [17]; 0.658 µM (active) in assay [18].
`Cc1c(N2C(=O)C(Cl)C2c2ccc(Cl)cc2)c(=O)n(-c2ccccc2)n1C` (configuration not stated): the GI50 in assay [1] is > 100 µM (inactive); in assay [2] it was > 100 µM (inactive); in assay [4], > 100 µM (inactive); in assay [5], 60.8 µM (inactive); in assay [19], 60.5 µM (inactive); in assay [6], 30 µM (inactive). Moreover, the GI50 in assay [8] is > 100 µM (inactive); in assay [9] it was > 100 µM (inactive); in assay [10], > 100 µM (inactive); in assay [11], 23.7 µM (inactive); in assay [12], > 100 µM (inactive); in assay [13] it was 88.3 µM (inactive). Also, the GI50 is 27.1 µM (inactive) in [14]; 62.7 µM (inactive) in [15]; 31.4 µM (inactive) in assay [16]; 75.2 µM (inactive) in assay [17]; 35.3 µM (inactive) in [18].
With `Cn1ccc(C(=O)NCCCCCNC(=O)c2ccn(C)c(=O)c2O)c(O)c1=O`, the GI50 in [1], in [3], in assay [4], in [5], in assay [19] and in assay [6] was > 100 µM (inactive) each time. Besides, the GI50 in assay [7], in assay [8], in assay [9], in assay [10], in assay [11] and in assay [12] was > 100 µM (inactive) each time. Moreover, the GI50 in [13], in assay [17] and in [18] was > 100 µM (inactive) throughout.
Regarding `COc1ccc(N)c(C(O)CCNC(C)=O)c1` (configuration not stated), the GI50 in assay [1], in assay [2], in assay [4], in [5], in assay [19] and in assay [6] was > 100 µM (inactive) throughout. The GI50 in assay [8], in assay [9], in [10], in assay [11], in [12] and in assay [13] was > 100 µM (inactive) in each case. For the same compound, the GI50 in assay [14], in assay [15], in assay [16], in assay [17] and in assay [18] was > 100 µM (inactive) each time.
On to `O=[N+]([O-])c1ccc2c(/N=N/c3c(O)ccc4ccccc34)c(O)cc(S(=O)(=O)O)c2c1`, for which the GI50 in assay [1] was 14.2 µM (inactive); in [2], 14.8 µM (inactive); in assay [3], 63.1 µM (inactive); in assay [4], 25.6 µM (inactive); in assay [5] it was 13.8 µM (inactive); in assay [19], 16.6 µM (inactive). Also, the GI50 in assay [6] is 15.5 µM (inactive); in assay [7], 10.1 µM (inactive); in [8], 5.28 µM (inactive); in [9], 26.9 µM (inactive); in assay [10], 17.5 µM (inactive); in assay [11] it was 4.86 µM (inactive). The GI50 is 35.2 µM (inactive) in assay [12]; 4.89 µM (inactive) in [14]; 4.07 µM (inactive) in [15]; 1.39 µM (inactive) in [16]; 2.51 µM (inactive) in assay [17]; 3.45 µM (inactive) in assay [18].
Consider `O=C(/N=N/c1ccccc1Br)NNc1ccccc1Br`, for which the GI50 in assay [1] was 35.4 µM (inactive); in assay [3] it was 22.5 µM (inactive); in assay [4], 77.6 µM (inactive); in assay [5], 67.1 µM (inactive); in [6] it was 55.8 µM (inactive); in [7], 53.7 µM (inactive). For the same compound, the GI50 in assay [8] was > 100 µM (inactive); in assay [9] it was 82.8 µM (inactive); in assay [10], > 100 µM (inactive); in [11], 46.1 µM (inactive); in [12], 56.2 µM (inactive); in assay [13], 13.7 µM (inactive). For the same compound, the GI50 was 55.6 µM (inactive) in [14]; 60.8 µM (inactive) in assay [15]; 25.6 µM (inactive) in [16]; 48.8 µM (inactive) in assay [17]; 60.8 µM (inactive) in assay [18].
For `Cc1cc(C)nc(NS(=O)(=O)c2ccc(Nc3nnc(/C=C/c4c(O)ccc5ccccc45)c(=O)n3N)cc2)n1`, the GI50 in assay [2] is 18.6 µM (inactive); in [4] it was 22.3 µM (inactive); in [5], 43.9 µM (inactive); in [19], 47.5 µM (inactive); in assay [6], 25.6 µM (inactive); in assay [8] it was 25.7 µM (inactive). Moreover, the GI50 in assay [9] was 32.7 µM (inactive); in [11] it was 23 µM (inactive); in assay [12], 22.5 µM (inactive); in [13], 11.1 µM (inactive); in assay [14] it was 27.9 µM (inactive); in [15], 22.1 µM (inactive). Besides, the values for the GI50 in [16] and in [17] were > 100 µM (inactive) and 29 µM (inactive), respectively.
`O=C(O)COc1cc(-c2ccccc2)nc2ccccc12`: the GI50 was > 100 µM (inactive) in [1]; > 100 µM (inactive) in [3]; > 100 µM (inactive) in assay [4]; 59.7 µM (inactive) in [5]; > 100 µM (inactive) in assay [19]; 26.1 µM (inactive) in assay [6]. Also, the GI50 in [7] is 73.3 µM (inactive); in [8], > 100 µM (inactive); in assay [9] it was > 100 µM (inactive); in assay [10] it was > 100 µM (inactive); in assay [11], > 100 µM (inactive); in assay [12], 77.1 µM (inactive). Further, the GI50 in assay [13] was > 100 µM (inactive); in assay [14] it was 56.4 µM (inactive); in assay [15], 71 µM (inactive); in assay [16], 47.2 µM (inactive); in assay [17] it was > 10 µM (inactive); in assay [18], 71.9 µM (inactive).
On to `O=C(O)c1cnc2[nH]ccn2c1=O`, for which the GI50 in assay [3], in assay [4], in [5], in assay [19], in assay [6] and in assay [7] was > 100 µM (inactive) throughout. Also, the GI50 in assay [8], in assay [9], in [10], in assay [11], in assay [12] and in assay [13] was > 100 µM (inactive) each time. Besides, the GI50 in assay [14], in assay [15], in [16], in [17] and in assay [18] was > 100 µM (inactive) in each case.
For `O=C(NC(CO)Cc1ccc(Oc2cc(CC(CO)NC(=O)OCc3ccccc3)ccc2OC(=O)OCc2ccccc2)cc1)OCc1ccccc1` (configuration not stated), the GI50 in assay [1] was 19.3 µM (inactive); in [3], 16.1 µM (inactive); in assay [4], 19.1 µM (inactive); in assay [5], 26.3 µM (inactive); in [19] it was 19.5 µM (inactive); in assay [6], 16.6 µM (inactive). The GI50 in assay [7] is 17.9 µM (inactive); in assay [8], 15.4 µM (inactive); in [9], 11.7 µM (inactive); in assay [10], 16.9 µM (inactive); in assay [11], 19.9 µM (inactive); in assay [12], 18.8 µM (inactive). Besides, the GI50 in [13] was 5.18 µM (inactive); in [14] it was 20.3 µM (inactive); in assay [15], 18.2 µM (inactive); in assay [16], 3.32 µM (inactive).
In the case of `CC1(C)OCC(C2CCC3(C)C4=CCC5C(C)(C)C(O)CCC5(C)C4CCC23C)CC(O)C1O` (configuration not stated), the GI50 was 16.3 µM (inactive) in assay [1]; 15.5 µM (inactive) in [3]; 18.7 µM (inactive) in [4]; 17.8 µM (inactive) in assay [5]; 16.2 µM (inactive) in [19]; 17.9 µM (inactive) in assay [6]. For the same compound, the GI50 in [7] is 17.3 µM (inactive); in assay [8], 17.5 µM (inactive); in assay [9], 15.9 µM (inactive); in assay [10] it was 17.3 µM (inactive); in [11], 20.2 µM (inactive); in [12], 14.1 µM (inactive). For the same compound, the GI50 in assay [13] was 8.61 µM (inactive); in assay [14], 18.7 µM (inactive); in assay [15], 16.9 µM (inactive); in assay [16] it was 14.4 µM (inactive); in assay [17], 14.5 µM (inactive); in assay [18] it was 15.4 µM (inactive).
